Consider one molecule from patent publication US8853156B2, “Treatment for diabetes in patients inappropriate for metformin therapy” (Boehringer Ingelheim International GmbH, priority 2008, dated 2014).

Data set [1] can be described thus: Pharmacokinetics of multiple oral doses once daily for 12 days in patients with type 2 diabetes.
For data set [2] the following is noted: male, human, in vivo, po.

With `CC#CCn1c(N2CCC[C@@H](N)C2)nc2c1c(=O)n(Cc1nc(C)c3ccccc3n1)c(=O)n2C` [BI 1356], in data set [1] (human, in vivo), the “excretion route and form” value is “primarily excreted unchanged via the bile”. In addition, the main excretion organ result in data set [1] (therapeutic oral dose levels) is on record as “mainly excreted via the liver”. In data set [2], the “excreted unchanged in urine and feces” value is listed as 90 % of excreted radioactivity; the “parent compound share of sample radioactivity in plasma” value is recorded as 74 % of sample radioactivity.
